Results reported in patent US4439426A, “Semisynthetic macrolidic antibiotics, intermediate compounds for their preparation and related pharmaceutical compositions containing them” (priority 1981, dated 1984).
In brackets after ≈: the same amount, converted by molar mass.

Legend:
[1] = test system: Clostridium perfrigens ATCC 3624 LRP 206; assay: microbe, parasite or virus in culture; type: cell-based; conditions: ATCC3624, solid medium, anaerobic, read-out: Minimum inhibiting concentration
Source text: (§1) the bacteriostatic power, expressed as the minimum inhibiting concentration (MIC) against both aerobic and anaerobic, Gram positive and Gram negative, bacterial stocks: the related results are reported in the tables 2 and 3.

Salmonella typhy LRP 8 = assay: microbe, parasite or virus in culture; type: cell-based; conditions: LRP8, solid medium, read-out: Minimum inhibiting concentration
Source text: as §1

Shigella sonnei LRP 5 = assay: Bacteriostatic power in solid medium (MIC); type: cell-based; conditions: LRP5, read-out: Minimum inhibiting concentration
Source text: as §1

[2] = test system: Fusobacteriumnecrophroum ATCC 27852 LRP 210; assay: Bacteriostatic power in solid medium (MIC); type: cell-based; conditions: solid medium; anaerobic; read-out: Minimum inhibiting concentration
Source text: as §1

Bacillus subtilis LRP 25 = assay: Bacteriostatic power in solid medium (MIC); type: cell-based; conditions: Bacillus subtilis, LRP25; solid medium; read-out: Minimum inhibiting concentration
Source text: as §1

Escherichia coli LRP 50 = assay: Bacteriostatic power in solid medium (MIC); type: cell-based; conditions: Escherichia coli, LRP50; solid medium; read-out: Minimum inhibiting concentration
Source text: as §1

[3] = test system: Streptococcus pyogenes ATCC 8668 LRP 34; assay: Bacteriostatic power in solid medium (MIC); type: cell-based; conditions: Streptococcus pyogenes, ATCC8668; solid medium; read-out: Minimum inhibiting concentration
Source text: as §1

[4] = test system: Corynebacterium diphteriae LRP 24; assay: Bacteriostatic power in solid medium (MIC); type: cell-based; conditions: Corynebacterium, LRP24; solid medium; read-out: Minimum inhibiting concentration
Source text: as §1

[5] = test system: Micrococcus luteus ATCC 15957 LRP 193; assay: Bacteriostatic power in solid medium (MIC); type: cell-based; conditions: Micrococcus luteus, ATCC15957; solid medium; Erythromycin resistant; read-out: Minimum inhibiting concentration
Source text: as §1

[6] = test system: Streptococcus pneumoniae ATCC 6303 LRP 53; assay: Bacteriostatic power in solid medium (MIC); type: cell-based; conditions: Streptococcus pneumoniae, ATCC6303; solid medium; read-out: Minimum inhibiting concentration
Source text: as §1

[7] = test system: Haemophilus influenzae ATCC 19418 LRP 213; assay: Bacteriostatic power in solid medium (MIC); type: cell-based; conditions: Haemophilus influenzae, ATCC19418; solid medium; read-out: Minimum inhibiting concentration
Source text: as §1

[8] = test system: Staphylococcus aureus ATCC 14154 LRP 78; assay: Bacteriostatic power in solid medium (MIC); type: cell-based; conditions: Staphylococcus aureus, ATCC14154; solid medium; Erythromycin resistant; read-out: Minimum inhibiting concentration
Source text: as §1

[9] = test system: Streptococcus faecalis LRP 7; assay: Bacteriostatic power in solid medium (MIC); type: cell-based; conditions: Enterococcus faecalis, LRP7; solid medium; read-out: Minimum inhibiting concentration
Source text: as §1

[10] = test system: Micrococcus luteus ATCC 9341 LRP 6; assay: Bacteriostatic power in solid medium (MIC); type: cell-based; conditions: Micrococcus luteus, ATCC9341; solid medium; read-out: Minimum inhibiting concentration
Source text: as §1

[11] = test system: Bacteroides fragilis ATCC 23745 LRP 205; assay: Bacteriostatic power in solid medium (MIC); type: cell-based; conditions: Bacteroides fragilis, ATCC23745; solid medium; anaerobic; read-out: Minimum inhibiting concentration
Source text: as §1

[12] = test system: Klelsiella pneumoniae LRP 54; assay: Bacteriostatic power in solid medium (MIC); type: cell-based; conditions: solid medium; read-out: Minimum inhibiting concentration
Source text: as §1

[13] = test system: Acholeplasma laidlawii ATCC 23206 LRP 204; assay: Bacteriostatic power in solid medium (MIC); type: cell-based; conditions: Acholeplasma laidlawii, ATCC23206, read-out: Minimum inhibiting concentration
Source text: as §1

[14] = test system: Pseudomonas aeruginosa LRP 9; assay: Bacteriostatic power in solid medium (MIC); type: cell-based; conditions: Pseudomonas aeruginosa, LRP9; solid medium; read-out: Minimum inhibiting concentration
Source text: as §1

[15] = test system: Staphylococcus aureus ATCC 6538P LRP 14; assay: Bacteriostatic power in solid medium (MIC); type: cell-based; conditions: Staphylococcus aureus, ATCC6538P; solid medium; Penycilline resistant; read-out: Minimum inhibiting concentration
Source text: as §1

[16] = test system: Streptococcus faecalis subsp. zymogenes ATCC 12958 LRP 61; assay: Bacteriostatic power in solid medium (MIC); type: cell-based; conditions: Enterococcus faecalis, ATCC12958; solid medium; read-out: Minimum inhibiting concentration
Source text: as §1

[17] = test system: Staphylococcus aureus ATCC 6538P LRP 39; assay: Bacteriostatic power in solid medium (MIC); type: cell-based; conditions: Staphylococcus aureus, ATCC6538P; solid medium; read-out: Minimum inhibiting concentration
Source text: as §1

[18] = test system: Streptococcus pneumoniae ATCC 6303 LRP 52; assay: Bacteriostatic power in solid medium (MIC); type: cell-based; conditions: Streptococcus pneumoniae, ATCC6303; solid medium; read-out: Minimum inhibiting concentration
Source text: as §1

[19] = test system: Proteus vulgaris ATCC 6380 LRP 13; assay: Bacteriostatic power in solid medium (MIC); type: cell-based; conditions: Proteus vulgaris, ATCC6380; solid medium; read-out: Minimum inhibiting concentration
Source text: as §1

[20] = test system: Streptococcus pyogenes ATCC 8668 LRP 197; assay: Bacteriostatic power in solid medium (MIC); type: cell-based; conditions: Streptococcus pyogenes, ATCC8668; solid medium; read-out: Minimum inhibiting concentration
Source text: as §1

[21] = test system: Neisseria gonorrhoeae ATCC 19424 LRP 214; assay: Bacteriostatic power in solid medium (MIC); type: cell-based; conditions: Neisseria gonorrhoeae, ATCC19424; solid medium; read-out: Minimum inhibiting concentration
Source text: as §1

[22] = test system: Mycoplasma hominis I ATCC 14027 LRP 211; assay: Bacteriostatic power in solid medium (MIC); type: cell-based; conditions: Metamycoplasma hominis, ATCC14027; solid medium; read-out: Minimum inhibiting concentration
Source text: as §1

[23] = test system: Streptococcus pneumoniae ATCC 6303 LRP 35; assay: Bacteriostatic power in solid medium (MIC); type: cell-based; conditions: Streptococcus pneumoniae, ATCC6303; solid medium; read-out: Minimum inhibiting concentration
Source text: as §1

[24] = Stability in acidic environment at 25° C. (half-life of initial microbiological activity); type: physicochemical; conditions: aqueous solution
Experimental: Stability in acidic environnment at 25° C. of the novel
Note: t 1/2 represents the time for reducing to one half the initial powe
of the antibiotic determined by microbiological method through diffusion
on a plate using the test stock Microccocus luteus (Sarcina lutea) ATCC

[25] = test system: Streptococcus pyogenes ATCC 8668 LRP 34; assay: Bacteriostatic power in liquid medium (MIC); type: cell-based; conditions: Streptococcus pyogenes, ATCC8668; liquid medium; read-out: Minimum inhibiting concentration
Source text: as §1

[26] = test system: Corynebacterium diphteriae LRP 24; assay: Bacteriostatic power in liquid medium (MIC); type: cell-based; conditions: Corynebacterium, LRP24; liquid medium; read-out: Minimum inhibiting concentration
Source text: as §1

[27] = test system: Staphylococcus aureus ATCC 6538 P LRP 39; assay: Bacteriostatic power in liquid medium (MIC); type: cell-based; conditions: Staphylococcus aureus, ATCC6538; liquid medium; read-out: Minimum inhibiting concentration
Source text: as §1

[28] = test system: Streptococcus faecalis subs. zymogenes ATCC 12958 LRP 61; assay: Bacteriostatic power in liquid medium (MIC); type: cell-based; conditions: Enterococcus faecalis, ATCC12958; liquid medium; read-out: Minimum inhibiting concentration
Source text: as §1

[29] = test system: Streptococcus pneumoniae ATCC 6303 LRP 35; assay: Bacteriostatic power in liquid medium (MIC); type: cell-based; conditions: Streptococcus pneumoniae, ATCC6303; liquid medium; read-out: Minimum inhibiting concentration
Source text: as §1

[30] = test system: Streptococcus pyogenes ATCC 8668 LRP 34; assay: Minimum bactericidal concentration (MBC); type: cell-based
Source text: (§2) the bacterial power, expressed as the minimum bactericidal power (MBC) against some Gram positive aerobic stocks (table 5).

[31] = test system: Corynebacterium diphteriae LRP 24; assay: Minimum bactericidal concentration (MBC); type: cell-based
Source text: as §2

[32] = test system: Streptococcus faecalis subs. zymogenes LRP 61; assay: Minimum bactericidal concentration (MBC); type: cell-based
Source text: as §2

[33] = test system: Staphylococcus aureus ATCC 6538 P LRP 39; assay: Minimum bactericidal concentration (MBC); type: cell-based
Source text: as §2

[34] = test system: Streptococcus pneumoniae ATCC 6303 LRP 35; assay: Minimum bactericidal concentration (MBC); type: cell-based
Source text: as §2

CC[C@H]1OC(=O)[C@H](C)[C@@H](O[C@H]2C[C@@](C)(O)[C@@H](O)[C@H](C)O2)[C@H](C)[C@@H](O[C@@H]2O[C@H](C)C[C@H](N(C)C)[C@H]2O)[C@](C)(O)C[C@](C)(F)C(=O)[C@H](C)[C@@H](O)[C@H]1C [P-80202, (8S)-8-fluoroerythromycin D]
MIC [1]: 3.12 µg/mL (≈ 4.32 µM) | MIC (Salmonella typhy LRP 8): 12.5 µg/mL (≈ 17.3 µM) | MIC (Shigella sonnei LRP 5): 25 µg/mL (≈ 34.6 µM) | MIC [2]: 6.25 µg/mL (≈ 8.66 µM) | MIC (Bacillus subtilis LRP 25): 0.049 µg/mL (≈ 0.0679 µM) | MIC (Escherichia coli LRP 50): 25 µg/mL (≈ 34.6 µM) | MIC [3]: 0.024 µg/mL (≈ 0.0332 µM) | MIC [4]: 0.006 µg/mL (≈ 0.00831 µM) | MIC [5]: 25 µg/mL (≈ 34.6 µM) | MIC [6]: 0.024 µg/mL (≈ 0.0332 µM) | MIC [7]: 6.25 µg/mL (≈ 8.66 µM) | MIC [8]: 25 µg/mL (≈ 34.6 µM) | MIC [9]: 0.097 µg/mL (≈ 0.134 µM) | MIC [10]: 0.006 µg/mL (≈ 0.00831 µM) | MIC [11]: 0.39 µg/mL (≈ 0.54 µM) | MIC [12]: 25 µg/mL (≈ 34.6 µM) | MIC [13]: 3.12 µg/mL (≈ 4.32 µM) | MIC [14]: 25 µg/mL (≈ 34.6 µM) | MIC [15]: 0.097 µg/mL (≈ 0.134 µM) | MIC [16]: 0.097 µg/mL (≈ 0.134 µM) | MIC [17]: 0.097 µg/mL (≈ 0.134 µM) | MIC [18]: 0.024 µg/mL (≈ 0.0332 µM) | MIC [19]: 25 µg/mL (≈ 34.6 µM) | MIC [20]: 0.024 µg/mL (≈ 0.0332 µM) | MIC [21]: 0.097 µg/mL (≈ 0.134 µM) | MIC [22]: 25 µg/mL (≈ 34.6 µM) | MIC [23]: 0.024 µg/mL (≈ 0.0332 µM) | half-life ([24]; pH 2): 0.4 h | half-life ([24]; pH 3): 10 h | MIC [25]: 0.049 µg/mL (≈ 0.0679 µM) | MIC [26]: 0.012 µg/mL (≈ 0.0166 µM) | MIC [27]: 0.195 µg/mL (≈ 0.27 µM) | MIC [28]: 0.39 µg/mL (≈ 0.54 µM) | MIC [29]: 0.049 µg/mL (≈ 0.0679 µM) | MBC/MIC [30]: 8 | MBC ([30]; Streptococcus pyogenes, ATCC8668, read-out: Minimum bactericidal concentration (MBC)): 0.39 µg/mL (≈ 0.54 µM) | MBC/MIC [31]: 16 | MBC ([31]; Corynebacterium, LRP24, read-out: Minimum bactericidal concentration (MBC)): 0.195 µg/mL (≈ 0.27 µM) | MBC/MIC [32]: 8 | MBC ([32]; Enterococcus faecalis, read-out: Minimum bactericidal concentration (MBC)): 3.12 µg/mL (≈ 4.32 µM) | MBC/MIC [33]: 16 | MBC ([33]; Staphylococcus aureus, ATCC6538, read-out: Minimum bactericidal concentration (MBC)): 3.12 µg/mL (≈ 4.32 µM) | MBC/MIC [34]: 4 | MBC ([34]; Streptococcus pneumoniae, ATCC6303, read-out: Minimum bactericidal concentration (MBC)): 0.195 µg/mL (≈ 0.27 µM)
